# Experimental data published in patent publication US20090143279A1 (priority 2007, published 2009).
# Where “and” joins values, the source holds several entries; their conditions need not be identical. Equal entries are not always repeated. Where two headings read alike, the source gives them in different places. Where a SMILES comes first, the peptide text is derived from it.
# Experiments:
# cytochrome c = assay type: cell-based, mouse
# [1] = test system: mitochondrial membrane potential; assay type: cell-based, mouse
# reactive oxygen species = assay type: cell-based, mouse
# [2] = test system: cellular dehydrogenase activity
# [3] = composite Z-score vs mock-treated (DMSO) wells, Conc 20 μM
# [4] = Table 4, C2C12 myotubes, 48 h, composite Z-score
# [5] = Table 4, C2C12 myotubes, 48 h, JC-1, composite Z-score
# [6] = composite Z-score vs mock-treated (DMSO) wells, concentration of each compound in μM
# cytochrome c, sequence (P62897 whole entry): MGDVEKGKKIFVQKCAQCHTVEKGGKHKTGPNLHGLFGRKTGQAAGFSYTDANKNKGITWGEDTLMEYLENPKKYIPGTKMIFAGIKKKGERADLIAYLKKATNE
compound,measurement,setting,value
C[C@@]1(O)CCOC(=O)C1 (racemic) [mevalonic-DL-acid lactone],cyt c,cytochrome c,−0.252
same,ΔΨm,[1],−0.183
"C[C@@H](N)[C@@H](O)c1ccccc1 [1S,2R-phenylpropanolamine]",cyt c,"cytochrome c; composite Z-score vs DMSO, Conc 20 μM",0.280
same,Viability,C2C12 myotubes,0.296
same,ROS,reactive oxygen species,0.721
same,ΔΨm,[1],−0.137
same,MTT,[2],−1.507
"O=C(O)CCCOc1ccc(Cl)cc1Cl [2,4-dichlorophenoxybutyric acid]",cyt c,cytochrome c,0.711
same,Viability,C2C12 myotubes,0.337
same,ROS,reactive oxygen species,0.758
same,ΔΨm,[1],−0.479
same,MTT,[2],−1.368
C[C@]12CC[C@@H](O)C[C@H]1CC[C@@H]1[C@@H]2CC[C@]2(C)C(=O)CC[C@@H]12 [3-alpha-hydroxy-5-beta-androstan-17-one],cyt c,cytochrome c,0.285
same,ROS,reactive oxygen species,1.400
same,ΔΨm,[1],−1.010
same,MTT,[2],−1.534
CC(C)NC[C@@H](O)COc1ccc(CC(N)=O)cc1 [(R)-(+)-atenolol],cyt c,cytochrome c,−0.033
same,Viability,C2C12 myotubes,−0.846
same,ROS,reactive oxygen species,1.639
same,ΔΨm,[1],−0.573
same,MTT,[2],−1.053
COc1ccc2cc([C@@H](C)C(=O)[O-])ccc2c1.[Na+] [(R)-naproxen sodium salt],cyt c,cytochrome c,0.444
same,Viability,C2C12 myotubes,0.632
same,ROS,reactive oxygen species,−0.736
same,ΔΨm,[1],−0.253
same,MTT,[2],0.325
"N#CC(C#N)=NNc1cccc(Cl)c1 [CCCP, carbonyl cyanide m-chlorophenylhydrazone, reference compound]",mitochondrial membrane potential,"[1]; assay control, FIG. 3-3",depolarization
CC([C@H](O)c1ccccc1)N(C)C (stereo partly drawn) [N-methyl (−)ephedrine],ΔΨm,[1],−0.068
CCN(CC)C(=O)N[C@H]1C[C@@H]2c3cccc4[nH]cc(c34)C[C@H]2N(C)C1 [S(+)-terguride],ΔΨm,[1],−0.585
Cc1c(N(C)C)c(=O)n(-c2ccccc2)n1C [amidopyrine],cyt c,cytochrome c,0.748
same,Viability,C2C12 myotubes,0.691
same,ROS,reactive oxygen species,−0.776
same,ΔΨm,[1],−0.496
same,MTT,[2],−0.051
CC1(C)S[C@@H]2[C@H](NC(=O)[C@H](N)c3ccc(O)cc3)C(=O)N2[C@H]1C(=O)O [amoxicillin],ROS,reactive oxygen species,1.061
C[C@@H]1[C@H](O)[C@@H](C)/C=C/C=C/C=C/C=C/C=C/C=C/C=C/[C@H](O[C@@H]2O[C@H](C)[C@@H](O)[C@H](N)[C@@H]2O)C[C@@H]2O[C@](O)(C[C@@H](O)C[C@@H](O)[C@H](O)CC[C@@H](O)C[C@@H](O)CC(=O)O[C@H]1C)C[C@H](O)[C@H]2C(=O)O [amphotericin B],cyt c,cytochrome c,−0.982
same,Viability,C2C12 myotubes,1.210
same,ROS,reactive oxygen species,0.005
same,ΔΨm,[1],0.308
same,MTT,[2],−0.790
CC1(C)S[C@@H]2[C@H](NC(=O)Cc3ccccc3)C(=O)N2[C@H]1C(=O)O.CC1(C)S[C@@H]2[C@H](NC(=O)Cc3ccccc3)C(=O)N2[C@H]1C(=O)O.c1ccc(CNCCNCc2ccccc2)cc1 [benzathine benzylpenicillin],ΔΨm,[1],0.729
CC(=O)[O-].CC(=O)[O-].[Cd+2] [cadmium acetate],cyt c,cytochrome c,−2.166
same,Viability,C2C12 myotubes,−1.393
same,ROS,reactive oxygen species,−1.066
same,ΔΨm,[1],−1.276
same,MTT,[2],−1.896
CC1(C)C(=O)C=C[C@@]2(C)C1=C(O)C(=O)[C@]1(C)[C@@H]2CC[C@@]2(C)[C@H](c3ccoc3)C[C@H]3O[C@]321 [cedrelone],cyt c,cytochrome c; [3],−5.998
same,Viability,C2C12 myotubes; [3],−4.680
same,ROS,reactive oxygen species; [3],−3.982
same,ΔΨm,[1]; [3],−3.459
same,MTT,[2]; [3],−6.617
CN(C)CCCN1c2ccccc2CCc2ccc(Cl)cc21 [clomipramine],ROS,reactive oxygen species,0.466
Clc1ccccc1C(c1ccccc1)(c1ccccc1)n1ccnc1 [clotrimazole],Viability,C2C12 myotubes,0.099
same,ROS,reactive oxygen species,2.521
"COc1cc2c(cc1OC)[C@@H]1C(=O)c3ccc4c(c3O[C@@H]1CO2)C=CC(C)(C)O4 [deguelin(−), reference compound]",Viability,C2C12 myotubes; [4],−0.940
same,ROS,reactive oxygen species; [4],0.426
same,ΔΨm,[1]; [5],1.451
same,MTT,[2]; [4],−4.052
C[C@@H]1C[C@H]2[C@@H]3CCC4=CC(=O)C=C[C@]4(C)[C@@]3(F)[C@@H](O)C[C@]2(C)[C@@]1(O)C(=O)CO [dexamethasone],ΔΨm,[1],0.240 and 0.273
OCCN(CCO)c1nc(N2CCCCC2)c2nc(N(CCO)CCO)nc(N3CCCCC3)c2n1 [dipyridamole],cyt c,cytochrome c,0.377 and 0.276
same,Viability,C2C12 myotubes,2.069 and 1.042
same,ΔΨm,[1],0.298 and 0.474
"COc1ccc([C@H]2COc3c(ccc(O)c3OC)C2)c(OC)c1O [duartin(−), reference compound]",ROS,reactive oxygen species; [4],0.900
"Oc1ccc([C@H]2Oc3cc(O)cc(O)c3C[C@H]2O)cc1 [epiafzelechin(2r,3r)(−), reference compound]",Viability,C2C12 myotubes; [4],−0.719
same,ROS,reactive oxygen species; [4],1.019
same,ΔΨm,[1]; [5],−3.118
same,MTT,[2]; [4],−0.486
"CC(C)n1c(/C=C/C(O)CC(O)CC(=O)O)c(-c2ccc(F)cc2)c2ccccc21 (stereo not shown) [fluvastatin, reference compound]",MTT activity,"[2]; screen, FIG. 9a, in words",strong decreases
CC(C)[N+]1(C)[C@@H]2CC[C@H]1C[C@@H](OC(=O)C(CO)c1ccccc1)C2 (stereo partly shown) [ipratropium],ROS,reactive oxygen species,1.245
CC(C(=O)O)c1cccc(C(=O)c2ccccc2)c1 (stereo not shown) [ketoprofen],ROS,reactive oxygen species,0.545
"CC[C@H](C)C(=O)O[C@H]1C[C@@H](C)C=C2C=C[C@H](C)[C@H](CC[C@@H]3C[C@@H](O)CC(=O)O3)[C@H]21 [lovastatin, reference compound]",cyt c (composite Z-score vs DMSO),cytochrome c,−1.628
same,MTT activity,[2],strong decreases
"COC(=O)Nc1nc2ccc(SC(C)C)cc2[nH]1 [methiazole, reference compound]",Viability,C2C12 myotubes; [4],−0.683
same,ROS,reactive oxygen species; [4],−2.515
same,ΔΨm,[1]; [5],0.040
same,MTT,[2]; [4],−0.654
CS(=O)(=O)Nc1ccc([N+](=O)[O-])cc1Oc1ccccc1 [nimesulide],ROS,reactive oxygen species,1.468 and 1.174
CCC1(c2ccc(N)cc2)CCC(=O)NC1=O (stereo not shown) [para-aminoglutethimide],ΔΨm,[1],−0.416
C[C@]12C=CC(=O)C=C1CC[C@@H]1[C@@H]2[C@@H](O)C[C@@]2(C)[C@H]1CC[C@]2(O)C(=O)CO [prednisolone],ROS,reactive oxygen species,0.248
CC(=O)[C@H]1CC[C@H]2[C@@H]3CC=C4C[C@@H](O)CC[C@]4(C)[C@H]3CC[C@]12C [pregnenolone],ΔΨm,[1],0.542
"C=C(C)[C@H]1Cc2c(ccc3c2O[C@@H]2COc4cc(OC)c(OC)cc4[C@@H]2C3=O)O1 [rotenone, reference compound]",MTT activity,"[2]; assay control, FIG. 3-2",inhibited
"CCC(C)(C)C(=O)O[C@H]1C[C@@H](C)C=C2C=C[C@H](C)[C@H](CC[C@@H]3C[C@@H](O)CC(=O)O3)[C@H]21 [simvastatin, reference compound]",MTT activity,"[2]; screen, FIG. 9a, in words",strong decreases
"CN[C@@H]1C[C@H]2O[C@@](C)([C@@H]1OC)n1c3ccccc3c3c4c(c5c6ccccc6n2c5c31)C(=O)NC4 [staurosporine, reference compound]",cell death (calcein),"C2C12 myotubes; assay control, FIG. 3-1",cell death in a dose dependent manner
Cc1cc(NS(=O)(=O)c2ccc(N)cc2)no1 [sulfamethoxazole],ROS,reactive oxygen species,1.114
CC1=C(CC(=O)O)c2cc(F)ccc2/C1=C\c1ccc([S+](C)[O-])cc1 (stereo not shown) [sulindac],Viability,C2C12 myotubes,0.777
O=c1n(CCCN2CCN(c3cccc(Cl)c3)CC2)nc2ccccn12 [trazodone],cyt c (composite Z-score vs DMSO),cytochrome c,0.028 and 0.038
CC(C)(C)C(=O)C(Oc1ccc(Cl)cc1)n1cncn1 (stereo not shown) [triadimefon],cyt c,cytochrome c,0.286
C[C@]12C=CC(=O)C=C1CC[C@H]1[C@@H]3C[C@@H](O)[C@](O)(C(=O)CO)[C@@]3(C)C[C@H](O)[C@@]12F [triamcinolone],cyt c,cytochrome c,−1.483
same,cyt c (composite Z-score vs DMSO),cytochrome c,0.087
C[n+]1cccc(C(=O)[O-])c1 [trigonelline],cyt c (composite Z-score),cytochrome c,−0.072
COc1cc(Cc2cnc(N)nc2N)cc(OC)c1OC [trimethoprim],ROS,reactive oxygen species,1.375
C[C@@H]1O[C@@H](OC[C@H]2O[C@@H](Oc3c(-c4ccc(OCCO)c(OCCO)c4)oc4cc(OCCO)cc(O)c4c3=O)[C@H](O)[C@@H](O)[C@@H]2O)[C@H](O)[C@H](O)[C@H]1O [troxerutin],cyt c,cytochrome c; [6],−0.673
COc1cc2c3cc1Oc1cc(ccc1O)C[C@@H]1c4c(cc(OC)c(O)c4Oc4ccc(cc4)C[C@@H]3N(C)CC2)CC[N+]1(C)C [tubocurarine],cyt c,cytochrome c; [6],1.117
CC[C@H]1OC(=O)C[C@@H](O)[C@H](C)[C@@H](O[C@@H]2O[C@H](C)[C@@H](O[C@H]3C[C@@](C)(O)[C@@H](O)[C@H](C)O3)[C@H](N(C)C)[C@H]2O)[C@@H](CC=O)C[C@@H](C)C(=O)/C=C/C(C)=C/[C@@H]1CO[C@@H]1O[C@H](C)[C@@H](O)[C@@H](OC)[C@H]1OC [tylosin],cyt c,cytochrome c; [6],−0.007
O=c1ccc2ccc(O)cc2o1 [umbelliferone],cyt c (composite Z-score),cytochrome c,−0.272
CC(C)[C@H](N)C(=O)N[C@@H](Cc1c[nH]c2ccccc12)C(=O)O [valyltryptophan] (H-Val-Trp-OH),cyt c,cytochrome c; [6],−0.626
COc1ccc(C(CN(C)C)C2(O)CCCCC2)cc1 (stereo not shown) [venlafaxine],cyt c,cytochrome c; [6],0.627
CC(=O)CC(c1ccccc1)c1c(O)c2ccccc2oc1=O (stereo not shown) [warfarin],cyt c,cytochrome c,0.267
C[C@H]1CCCC(=O)CCC/C=C/c2cc(O)cc(O)c2C(=O)O1 [zearalenone],cyt c,cytochrome c; [6],−0.185
Cc1cn([C@H]2C[C@H](N=[N+]=[N-])[C@@H](CO)O2)c(=O)[nH]c1=O [zidovudine],cyt c,cytochrome c,0.611
same,cyt c (composite Z-score vs DMSO mock-treated wells),cytochrome c,0.637
(−)-MK 801,ΔΨm,[1],−0.786
amyleine,MTT,[2],−0.719
catechin hydrate [reference compound],cyt c,cytochrome c,1.085
methyl benzethonium chloride,Viability,C2C12 myotubes,−2.690
same,ROS,reactive oxygen species,−1.501
same,ΔΨm,[1],0.480
same,MTT,[2],−4.304
trisodium ethylenediamine tetracetate,Viability,C2C12 myotubes,−0.946
same,ROS,reactive oxygen species,−0.436
same,ΔΨm,[1],0.474
same,MTT,[2],−1.123
